For assay [1], the system named is collagen-induced arthritis (CIA) mouse model. As to the kind of experiment: Rheumatoid arthritis treatment effect in collagen-induced arthritis (CIA) mouse model. The note with it: intraperitoneal, 3 times a week after second immunization; versus vehicle PBS; similar efficacy to positive control MTX. The format is in vivo, DBA/1J mouse. The method, then:
In order to confirm a rheumatoid arthritis improvement effect of the peptides prepared in Example 1, a rheumatoid arthritis mouse model was prepared with reference to a known literature (Nat Protoc. 2007; 2 (5): 1269-75.).
Specifically, a CIA mouse model is a mouse model most commonly used in a rheumatoid arthritis animal test as an autoimmune disease arthritis model having characteristics similar to human rheumatoid arthritis. In the CIA mouse model, bovine type II collagen (Chondrex, USA) was mixed and emulsified with a Freund's complete adjuvant (Chondrex, USA) at 1:1, and then first immunization was performed by injecting 50 μl of the emulsified collagen solution intradermally into a 6-week-old DBA/1J mouse tail. On 2 weeks after the first immunization, bovine type II collagen was mixed and emulsified with a Freund's incomplete adjuvant (Chondrex, USA) at 1:1, and then second immunization (boosting) was performed by injecting 50 μl of the emulsified collagen solution induced) intradermally into the mouse tail. After the second immunization, each peptide was intraperitoneally administered 3 times a week from the following day to observe a therapeutic effect of the peptides for rheumatoid arthritis.
In order to examine the progression of rheumatoid arthritis according to the peptide treatment of the present invention, the severity of rheumatoid arthritis over time was evaluated and measured by a rheumatoid arthritis progress index.
At this time, the arthritis progress index was evaluated as Points 0 to 4 per leg in accordance with the arthritis progress evaluation criteria by Rossoliniec, etc. in Table 2 below and shown to total Points 0 to 16 (sum of four legs). Thereafter, an average value of the results evaluated by the two observers was calculated to quantify the severity of arthritis.

In assay [2] the test system is Th17 cell differentiation of naive CD4+ T cells. As to the kind of experiment: Th17 cell differentiation inhibitory effect (CD4+IL-17+ T cell population). Format: cell-based, mouse. The note with it: IL-6 20 ng/ml + TGF-beta 5 ng/ml + TCR activation; peptide 10 ng/ml to 1000 ng/ml, 3 days; non-induced 1.2%, induced 3.14%. How it is done: In order to confirm the efficacy of the synthetic peptides prepared in Example 1 to inhibit Th17 cell differentiation, naive CD4^+ T cells extracted from lymph nodes of the mouse were treated with IL-6 20 ng/ml and TGF-beta 5 ng/ml together with TCR activation to induce differentiation into Th17 cells.
At the same time, three peptides Pep1, Pep6, and Pep8 disclosed in Table 2 of Test Example 1 were treated at a concentration of 10 ng/ml to 1000 ng/ml, respectively. Then, after incubation for 3 days, CD4+IL-17+ T cell population was analyzed.

The next assay has as its system IL-6. Description: Inflammatory cytokine IL-6 reduction effect (IL-6 ELISA, THP-1 derived M1 macrophages). The note with it: LPS 10 ng/ml + IFN-gamma 20 ng/ml, peptide 100 ng/ml, 24 hours, similar to positive control MTX. Format: cell-based. The method, then:
In order to confirm the efficacy of the synthetic peptides prepared in Example 1 to inhibit inflammatory cytokine IL-6 secretion, a THP-1 monocytic cell line was treated with PMA 50 ng/ml for 48 hours to be differentiated into M1 macrophages. After treatment with LPS 10 ng/ml and IFN-gamma 20 ng/ml to the differentiated M1 macrophages, a positive control group MTX or the synthetic peptides of the present invention were co-treated at a concentration of 100 ng/ml, respectively. Thereafter, after incubation for 24 hours, IL-6 ELISA was performed using a cultured sup.

In the case of KDAKDA [Pep4], the “arthritis improvement (arthritis score, total Points 0 to 16)” value (shortened to “arthritis improvement”) in assay [1] is listed as “efficacy of arthritis improvement was shown”.

Turning to KDAKDAKDA [Pep8], the “ratio of Th17 cells (CD4+IL-17+ T cell population)” value (“ratio of Th17 cells” for short) in assay [2] is “reduced similarly to the group that did not induce differentiation”. In addition, the “IL-6 secretion (ELISA of culture sup)” value in the assay with IL-6 is recorded as “significantly reduced”. For the same substance, the “arthritis improvement” value in assay [1] is listed as “efficacy of arthritis improvement was shown”.

Take KDGKDG [Pep1]: in assay [2], the “ratio of Th17 cells” value is “reduced similarly to the group that did not induce differentiation”. Besides, in assay [1], the “arthritis improvement” value is on record as “efficacy of arthritis improvement was shown”.

KDGKDGKDG [Pep5]: the “IL-6 secretion (ELISA of culture sup)” value in the assay with IL-6 is reported as “significantly reduced”.

Consider KEAKEA [Pep3], for which the “IL-6 secretion (ELISA of culture sup)” value with IL-6 is “significantly reduced”.

In the case of KEAKEAKEA [Pep7], the “IL-6 secretion (ELISA of culture sup)” value with IL-6 was “significantly reduced”. In assay [1], the “arthritis improvement” value was “efficacy of arthritis improvement was shown”.

Take KEGKEG [Pep2]: the “IL-6 secretion (ELISA of culture sup)” value in the assay on IL-6 is listed as “significantly reduced”.

With KEGKEGKEG [Pep6], the “ratio of Th17 cells” value in assay [2] is recorded as “reduced similarly to the group that did not induce differentiation”. Also, in assay [1], the “arthritis improvement” value was “efficacy of arthritis improvement was shown”.

Source of the values: patent US11730788B2, “Use of peptides as therapeutic agent for autoimmune diseases and bone diseases” (KINE SCIENCES CO., LTD., priority 2017, dated 2023).
